Measured values: ChEMBL document CHEMBL1156972, “Discovery of 2-ureidophenyltriazines bearing bridged morpholines as potent and selective ATP-competitive mTOR inhibitors” (Bioorg Med Chem Lett, 2010)
Active and inactive are the calls of the source. No cut-off for these calls is given here.

Legend:
[1] = biological target: Serine/threonine-protein kinase mTOR (Rattus norvegicus, UniProt P42346); test: Inhibition of rat brain mTOR assessed as p70S6K-GST protein phosphorylation after 30 mins by ELISA
[2] = Inhibition of PI3K assessed as PIP3 level after 20 mins by HTRF assay
[3] = Selectivity ratio of IC50 for PI3K to IC50 for rat brain mTOR
[4] = test system: LNCaP; test: Antiproliferative activity against human LNCAP cells after 3 days by MTS assay; type: functional, cell-based; conditions: 72 h
[5] = test system: U-87MG ATCC; test: Antitumor activity against human U87MG cells xenografted in nude mouse assessed as reduction in tumor volume at 12.5 to 25 mg/kg, po QD for 5 days measured after 9 days; type: functional, organism-based
[6] = Antitumor activity against human U87MG cells xenografted in nude mouse assessed as reduction in tumor volume at 5 mg/kg, iv QD for 5 days measured after 9 days relative to control; type: functional, U-87MG ATCC; design: scale not given: the % may be the effect or the level left
[7] = test system: MDA361; test: Inhibition of PI3K in human MDA361 cells assessed as suppression of P-AKT T308 level at 0.0125 to 10 uM by immunoblotting; type: cell-based
[8] = test system: Mus musculus; test: Inhibition of mTOR in human MDA361 cells xenografted in nude mouse assessed as suppression of TORC1 level at 10 mg/kg, iv after 8 hrs by immunoblotting; type: functional, organism-based; design: dose 10 mg/kg
[9] = test system: Mus musculus; test: Inhibition of mTOR in human MDA361 cells xenografted in nude mouse assessed as suppression of TORC2 level at 10 mg/kg, iv after 8 hrs by immunoblotting; type: functional, organism-based; design: dose 10 mg/kg
[10] = test system: Mus musculus; test: Inhibition of PI3K signalling in human MDA361 cells xenografted in nude mouse assessed as suppression of PI3K/PDK1 level at 10 mg/kg, iv after 8 hrs by immunoblotting; type: functional, organism-based; design: dose 10 mg/kg
[11] = test system: Mus musculus; test: Inhibition of mTOR in human MDA361 cells xenografted in nude mouse assessed as suppression of TORC1 level at 25 mg/kg, iv after 8 hrs by immunoblotting; type: functional, organism-based; design: dose 25 mg/kg
[12] = test system: Mus musculus; test: Inhibition of mTOR in human MDA361 cells xenografted in nude mouse assessed as suppression of TORC2 level at 25 mg/kg, iv after 8 hrs by immunoblotting; type: functional, organism-based; design: dose 25 mg/kg
[13] = test system: Mus musculus; test: Inhibition of PI3K signalling in human MDA361 cells xenografted in nude mouse assessed as suppression of PI3K/PDK1 level at 25 mg/kg, iv after 8 hrs by immunoblotting; type: functional, organism-based; design: dose 25 mg/kg
[14] = test system: U-87MG ATCC; test: Antitumor activity against human U87MG cells xenografted in nude mouse assessed as reduction in tumor volume at 5 to 15 mg/kg, po QD for 5 days measured up to 10 days; type: functional, organism-based
[15] = Antitumor activity against human U87MG cells xenografted in nude mouse assessed as reduction in tumor volume at 10 mg/kg, po QD for 5 days measured after 8 days relative to control; type: functional, U-87MG ATCC; design: scale not given: the % may be the effect or the level left

| SMILES | IC50 [1] | IC50 [2] | Ratio IC50 [3] | IC50 [4] | further results |
| --- | --- | --- | --- | --- | --- |
| CN1CCN(c2ccc(NC(=O)Nc3ccc(-c4nc(N5C6CCC5COC6)nc(N5C6CCC5COC6)n4)cc3)cc2)CC1 | – | – | – | – | Activity [5]: Active; Activity [6]: 31%; inhibition [7]: Active; inhibition [8]: Active; inhibition [9]: Active; inhibition [10]: inactive; inhibition [11]: Active; inhibition [12]: Active; inhibition [13]: Active |
| FC(F)c1nc2ccccc2n1-c1nc(N2CCOCC2)nc(N2CCOCC2)n1 [ZSTK-474] | 45 nM | – | – | 210 nM | – |
| CN1CCN(c2ccc(NC(=O)Nc3ccc(-c4nc(N5C[C@H]6C[C@@H]5CO6)nc(N5C[C@H]6C[C@@H]5CO6)n4)cc3)cc2)CC1 | 130 nM | 1820 nM | 14 | 550 nM | – |
| FC(F)c1nc2ccccc2n1-c1nc(N2CCOCC2)nc(N2CC3CCC(C2)O3)n1 | 60 nM | 24 nM | 0.41 | 180 nM | – |
| CN1CCN(c2ccc(NC(=O)Nc3ccc(-c4nc(N5CC6CCC(C5)O6)nc(N5C6CCC5COC6)n4)cc3)cc2)CC1 | 2 nM | 150 nM | 75 | < 0.8 nM | – |

Now from value to compound, other results behind:

| IC50 [1] | IC50 [2] | Ratio IC50 [3] | IC50 [4] | SMILES | further results |
| --- | --- | --- | --- | --- | --- |
| 2.5 nM | 680 nM | 272 | 190 nM | CNC(=O)Nc1ccc(-c2nc(N3CC4CCC(C3)O4)nc(N3CC4CCC(C3)O4)n2)cc1 | – |
| 35 nM | 3440 nM | 98 | – | CN1CCN(c2ccc(NC(=O)Nc3ccc(-c4nc(N5C[C@@H]6C[C@H]5CO6)nc(N5C[C@@H]6C[C@H]5CO6)n4)cc3)cc2)CC1 | – |
| 44 nM | 124 nM | 2.8 | 680 nM | FC(F)c1nc2ccccc2n1-c1nc(N2CC3CCC(C2)O3)nc(N2CC3CCC(C2)O3)n1 | – |
| 1.7 nM | 87 nM | 51 | 2.3 nM | CN1CCN(c2ccc(NC(=O)Nc3ccc(-c4nc(N5CC6CCC(C5)O6)nc(N5CC6CCC(C5)O6)n4)cc3)cc2)CC1 | Activity [14]: Active; Activity [15]: 44% |
| 2.6 nM | 2120 nM | 802 | 90 nM | O=C(Nc1ccc(-c2nc(N3CC4CCC(C3)O4)nc(N3CC4CCC(C3)O4)n2)cc1)NC1CC1 | – |
| 0.5 nM | 142 nM | 282 | 45 nM | O=C(Nc1ccncc1)Nc1ccc(-c2nc(N3CC4CCC(C3)O4)nc(N3CC4CCC(C3)O4)n2)cc1 | – |
| 2.8 nM | 2690 nM | 961 | 180 nM | CCNC(=O)Nc1ccc(-c2nc(N3CC4CCC(C3)O4)nc(N3CC4CCC(C3)O4)n2)cc1 | – |
